In ChEMBL document CHEMBL5120894, “Isolation, Biosynthetic Investigation, and Biological Evaluation of Maniwamycin G, an Azoxyalkene Compound from Streptomyces sp. TOHO-M025” (J Nat Prod, 2022):
Values after ≈ are worked out from the molar mass of the structure shown. Active and inactive are the calls of the source. No cut-off for these calls is given here.

What was measured:
[1] = Inhibition of quorum sensing system in Chromobacterium violaceum CV026 assessed as reduction in violacein production incubated for 24 hrs
[2] = Inhibition of quorum sensing system in Chromobacterium violaceum CV026 assessed as reduction in violacein production at 1 mg/ml incubated for 24 hrs relative to control

Structure (SMILES) | IC50 [1] | also measured
CCCC/C=C/[N+]([O-])=N/C(C)C(O)C(N)=O (stereo not given) | 500 µg/mL (≈ 2180 µM) | 
CCCC/C=C/[N+]([O-])=N/[C@H](C)[C@@H](C)O | 120 µg/mL (≈ 599 µM) | 
CCCC/C=C/[N+]([O-])=N/[C@H](C)[C@H](C)O | 120 µg/mL (≈ 599 µM) | 
CCCC(O)/C=C/[N+]([O-])=N/C(C)C(C)O (stereo not given) |  | inhibition [1]: Active
CCCC/C=C/[N+]([O-])=N/[C@H](C)[C@H](O)CC(=O)OC |  | inhibition [2]: 40%
